Laboratory results as given in PubChem BioAssay (NCI).
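Grown in 96-well plates, cells were treated for 48 hours with each compound at five concentrations. Insufficient inhibition: endpoint recorded as highest concentration tested. GI50 = concentration required for 50% inhibition of growth. Definition used: TGI = concentration required for complete inhibition of growth.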

Experiments:
Test in all cases: NCI-60 cell line screen, 48 h
786-0 renal = system: 786-0 renal
A498 renal = system: A498 renal
A549 NSCLC = system: A549 NSCLC
ACHN renal = system: ACHN renal
BT-549 breast = system: BT-549 breast
CAKI-1 renal = system: CAKI-1 renal
CCRF-CEM leukemia = system: CCRF-CEM leukemia
COLO 205 colon = system: COLO 205 colon
DU-145 prostate = system: DU-145 prostate
EKVX NSCLC = system: EKVX NSCLC
HCC-2998 colon = system: HCC-2998 colon
HCT-116 colon = system: HCT-116 colon
HCT-15 colon = system: HCT-15 colon
HL-60(TB) leukemia = system: HL-60(TB) leukemia
HOP-62 NSCLC = system: HOP-62 NSCLC
HOP-92 NSCLC = system: HOP-92 NSCLC
HS 578T breast = system: HS 578T breast
HT29 colon = system: HT29 colon
IGROV1 ovarian = system: IGROV1 ovarian
K-562 leukemia = system: K-562 leukemia
KM12 colon = system: KM12 colon
LOX IMVI melanoma = system: LOX IMVI melanoma
M14 melanoma = system: M14 melanoma
MALME-3M melanoma = system: MALME-3M melanoma
MCF7 breast = system: MCF7 breast
MDA-MB-231 breast = system: MDA-MB-231 breast
MDA-MB-435 = system: MDA-MB-435
MOLT-4 leukemia = system: MOLT-4 leukemia
NCI-H226 lung = system: NCI-H226 lung
NCI-H23 lung = system: NCI-H23 lung
NCI-H460 lung = system: NCI-H460 lung
NCI-H522 lung = system: NCI-H522 lung
NCI/ADR-RES ovarian = system: NCI/ADR-RES ovarian
OVCAR-4 ovarian = system: OVCAR-4 ovarian
OVCAR-5 ovarian = system: OVCAR-5 ovarian
OVCAR-8 ovarian = system: OVCAR-8 ovarian
PC-3 prostate = system: PC-3 prostate
RPMI-8226 leukemia = system: RPMI-8226 leukemia
RXF 393 renal = system: RXF 393 renal
SF-268 CNS = system: SF-268 CNS
SF-295 CNS = system: SF-295 CNS
SF-539 CNS = system: SF-539 CNS
SK-MEL-2 melanoma = system: SK-MEL-2 melanoma
SK-MEL-28 melanoma = system: SK-MEL-28 melanoma
SK-MEL-5 melanoma = system: SK-MEL-5 melanoma
SK-OV-3 ovarian = system: SK-OV-3 ovarian
SN12C renal = system: SN12C renal
SNB-19 CNS = system: SNB-19 CNS
SNB-75 CNS = system: SNB-75 CNS
SR leukemia = system: SR leukemia
SW-620 colon = system: SW-620 colon
T-47D breast = system: T-47D breast
TK-10 renal = system: TK-10 renal
U251 CNS = system: U251 CNS
UACC-257 melanoma = system: UACC-257 melanoma
UACC-62 melanoma = system: UACC-62 melanoma
UO-31 renal = system: UO-31 renal

## Oc1ccc(CSc2nnc(-c3cnccn3)o2)c2cccnc12
786-0 renal
  GI50: 590 nM
  TGI: > 100000 nM
A498 renal
  GI50: 2220 nM
  TGI: 7220 nM
A549 NSCLC
  GI50: 404 nM
  TGI: > 100000 nM
ACHN renal
  GI50: 432 nM
  TGI: > 100000 nM
BT-549 breast
  GI50: 283 nM
  TGI: 8560 nM
CAKI-1 renal
  GI50: 605 nM
  TGI: > 100000 nM
CCRF-CEM leukemia
  GI50: 536 nM
  TGI: > 100000 nM
COLO 205 colon
  GI50: 3220 nM
  TGI: 11100 nM
DU-145 prostate
  GI50: 472 nM
  TGI: > 100000 nM
EKVX NSCLC
  GI50: 505 nM
  TGI: > 100000 nM
HCC-2998 colon
  GI50: 697 nM
  TGI: > 100000 nM
HCT-116 colon
  GI50: 334 nM
  TGI: > 100000 nM
HCT-15 colon
  GI50: 385 nM
  TGI: > 100000 nM
HL-60(TB) leukemia
  GI50: 410 nM
HOP-62 NSCLC
  GI50: 449 nM
  TGI: > 100000 nM
HOP-92 NSCLC
  GI50: 202 nM
  TGI: 592 nM
HS 578T breast
  GI50: 340 nM
  TGI: > 100000 nM
HT29 colon
  GI50: 4000 nM
  TGI: > 100000 nM
IGROV1 ovarian
  GI50: 812 nM
  TGI: > 100000 nM
K-562 leukemia
  GI50: 363 nM
  TGI: > 100000 nM
KM12 colon
  GI50: 638 nM
  TGI: > 100000 nM
LOX IMVI melanoma
  GI50: 383 nM
  TGI: > 100000 nM
M14 melanoma
  GI50: 475 nM
  TGI: > 85200 nM
MALME-3M melanoma
  GI50: 283 nM
  TGI: 2190 nM
MCF7 breast
  GI50: 305 nM
MDA-MB-231 breast
  GI50: 840 nM
  TGI: > 100000 nM
MDA-MB-435
  GI50: 359 nM
  TGI: > 100000 nM
MOLT-4 leukemia
  GI50: 488 nM
  TGI: > 100000 nM
NCI-H226 lung
  GI50: 1750 nM
  TGI: > 29600 nM
NCI-H23 lung
  GI50: 371 nM
  TGI: > 100000 nM
NCI-H460 lung
  GI50: 336 nM
  TGI: > 100000 nM
NCI-H522 lung
  GI50: 415 nM
  TGI: > 100000 nM
NCI/ADR-RES ovarian
  GI50: 1890 nM
  TGI: > 100000 nM
OVCAR-4 ovarian
  GI50: 643 nM
  TGI: > 100000 nM
OVCAR-5 ovarian
  GI50: 1420 nM
  TGI: > 100000 nM
OVCAR-8 ovarian
  GI50: 381 nM
  TGI: > 100000 nM
PC-3 prostate
  GI50: 335 nM
  TGI: > 100000 nM
RPMI-8226 leukemia
  GI50: 395 nM
  TGI: > 100000 nM
RXF 393 renal
  GI50: 522 nM
  TGI: > 41000 nM
SF-268 CNS
  GI50: 453 nM
  TGI: > 100000 nM
SF-295 CNS
  GI50: 364 nM
  TGI: > 100000 nM
SF-539 CNS
  GI50: 419 nM
  TGI: > 100000 nM
SK-MEL-2 melanoma
  GI50: 314 nM
  TGI: 998 nM
SK-MEL-28 melanoma
  GI50: 711 nM
  TGI: > 100000 nM
SK-MEL-5 melanoma
  GI50: 229 nM
  TGI: 530 nM
SK-OV-3 ovarian
  GI50: 700 nM
  TGI: > 23700 nM
SN12C renal
  GI50: 317 nM
  TGI: > 100000 nM
SNB-19 CNS
  GI50: 390 nM
  TGI: > 100000 nM
SNB-75 CNS
  GI50: 332 nM
  TGI: > 100000 nM
SR leukemia
  GI50: 395 nM
  TGI: > 100000 nM
SW-620 colon
  GI50: 445 nM
  TGI: > 100000 nM
T-47D breast
  GI50: 379 nM
  TGI: > 100000 nM
TK-10 renal
  GI50: 3070 nM
  TGI: > 100000 nM
U251 CNS
  GI50: 370 nM
  TGI: > 100000 nM
UACC-257 melanoma
  GI50: 407 nM
  TGI: 4720 nM
UACC-62 melanoma
  GI50: 517 nM
  TGI: 15700 nM
UO-31 renal
  GI50: 426 nM
  TGI: > 32200 nM
